Where no end group is shown, it is not given here.
Tests used:
Format in all cases: in vivo
male C57BL/6J mice [1] = test: Test Example 1: antifeedant activity of NMU-23 and NMS in mice; settings: 3 mg/kg intraperitoneally, mice fasted for 16 hours
Protocol: 7 weeks old male C57BL/6J mice (mean bodyweight: 24 g) delivered from the Japan Charles River Company were raised for 5 to 7 days after the delivery under a feeding environment regulated for temperature and humidity with lighting time (25° C., 12 hours of lighted period and 12 hours of dark period, light was lit at 8:00). Four animals were placed in one cage. After handling the mice for 5 to 8 days, the animals were housed singly in each cage where a floor mesh was spread and acclimated by intraperitoneal injection for 3 days prior to the administration of a peptide. The animals acclimated were fasted for 16 hours from 18:00 prior to the administration of the peptide. However, the animals had free access to drinking water. Subsequently, a peptide, namely 720 μg/ml rat NMU-23 (peptide Institution) [Sequence No. 5], or rat NMS (Bachem) [Sequence No. 9] dissolved in physiological saline solution was intraperitoneally injected to the mice such that the dosage of each solution (100 μl) was 3 mg/kg at 10:00 on the day of administration. […] Further, the residual amount of the feed was measured after 3, 6 and 24 hours. The food intakes at 3, 6 and 24 hours were calculated by subtracting the residual amount of the feed after 3, 6 and 24 hours from the amount of the feed that was originally given. […]

male C57BL/6J mice [2] = test: Test Example 8: antifeedant activity of NMU-8 PEG conjugate in mice; settings: 100 nmol/kg intraperitoneally, mice fasted for 16 hours (FIG. 9)
Protocol: (§1) 7 weeks old male C57BL/6J mice delivered from the Japan Charles River Company were raised for 5 to 10 days after delivery under a feeding environment regulated for temperature and humidity with lighting time (25° C., 12 hours of lighted period and 12 hours of dark period, light was lit at 8:00). Four animals were placed in one cage. After handling the mice for 5 to 8 days, the animals were housed singly in each cage where a floor mesh was spread and acclimated by intraperitoneal injection for 3 days prior to the administration of a peptide (conjugate). The animals acclimated were fasted for 16 hours from 18:00 prior to the administration of the peptide (conjugate). However, the animals has free access to drinking water). Subsequently, a peptide (conjugate) dissolved in physiological saline solution was intraperitoneally injected to the mice, namely 24.3 μM PEG30k (ACP)-NMU-8 [14], 24.3 μM (PEG20k)2 (ACP)-NMU-8 [29], 24.3 μM PEG30k (AB)-NMU-8 [11], 24.3 μM (PEG20k)2 (AB)-NMU-8 [26], 24.3 μM PEG30k (NH-AB)-NMU-8 [42], 24.3 μM PEG30k (SMCC)-NMU-8 [4] were administered intraperitoneally at 10:00 on the day of administration to the mice such that the dosage of each solution (100 μl) was 100 nmol/kg. After the injection of the peptide (conjugate) solution, MF feed which had been weighed (Oriental Yeast Industry) was given freely to the mice. Further, the residual amount of the feed was measured after 3, 6 and 24 hours. The food intakes at 3, 6 and 24 hours were calculated by subtracting the residual amount of the feed after 3, 6 and 24 hours from the amount of the feed that was originally given.

male C57BL/6J mice [3] = test: Test Example 6: antifeedant activity of NMU-8 PEG conjugate in mice; settings: 100 nmol/kg intraperitoneally, mice fasted for 16 hours (FIG. 7)
Protocol: as §1, with “had” for “has”, “Subsequently, a peptide (conjugate) dissolved in physiological saline solution was intraperitoneally injected to the mice, namely 24.3 μM PEG30k (ACP)-NMU-8 [14], 24.3 μM (PEG20k)2 (ACP)-NMU-8 [29], 24.3 μM PEG30k (AB)-NMU-8 [11], 24.3 μM (PEG20k)2 (AB)-NMU-8 [26], 24.3 μM PEG30k (NH-AB)-NMU-8 [42], 24.3 μM PEG30k (SMCC)-NMU-8 [4] were administered intraperitoneally at 10:00 on the day of administration to the mice such that the dosage of each solution (100 μl) was 100 nmol/kg.” left out

male C57BL/6J mice [4] = test: Test Example 7: antifeedant activity of NMU-8 PEG conjugate in mice; settings: 10 nmol/kg intraperitoneally, mice fasted for 16 hours (FIG. 8)
Protocol: 7 weeks old male C57BL/6J mice delivered from the Japan Charles River Company were raised for 5 to 10 days after delivery under a feeding environment regulated for temperature and humidity with lighting time (25° C., 12 hours of lighted period and 12 hours of dark period, light was lit at 8:00). Four animals were placed in one cage. After handling the mice for 5 to 8 days, the animals were housed singly in each cage where a floor mesh was spread and acclimated by intraperitoneal injection using a syringe (micro injector, syringe for insulin administration, Terumo) for 3 days prior to the administration of a peptide (conjugate). The animals acclimated were fasted for 16 hours from 18:00 prior to the administration of the peptide (conjugate). However, the animals were free access to drinking water). Subsequently, a peptide dissolved in physiological saline solution (conjugate) namely 2.51 μM PEG30k-NMU-8 [5], 2.51 μM PEG30k-Cys-NMU-8 [6], 2.51 μM PEG30k-(Traut)-NMU-8 [7], 2.51 μM PEG30k (SMCC)-NMU-8 [4] were administered intraperitoneally at 10:00 on the day of administration to the mice such that the dosage of each solution (100 μl) was 10 nmol/kg. After the injection of the peptide (conjugate) solution, MF feed which had been weighed (Oriental Yeast Industry) was given freely to the mice. Further, the residual amount of the feed was measured after 3, 6 and 24 hours. The food intakes at 3, 6 and 24 hours were calculated by subtracting the residual amount of the feed after 3, 6 and 24 hours from the amount of the feed that was originally given.

male C57BL/6J mice [5] = test: Test Example 2: antifeedant activity of NMU-23 and NMU-8 in mice
Protocol: 7 weeks old male C57BL/6J mice (mean bodyweight: 25 g) delivered from the Japan Charles River Company were raised for 5 to 10 days after delivery under a feeding environment regulated for temperature and humidity with lighting time (25° C., 12 hours of lighted period and 12 hours of dark period, light was lit at 8:00). Four animals were placed in one cage. After handling the mice for 5 to 8 days, the animals were housed singly in each cage where a floor mesh was spread and acclimated by intraperitoneal injection for 3 days prior to the administration of a peptide. The animals acclimated were fasted for 16 hours from 18:00 prior to the administration of the peptide. However, the animals had free access to drinking water. […] After the injection of the peptide solution, MF feed which had been weighed (Oriental Yeast Industry) was given freely to the mice. Further, the residual amount of the feed was measured after 3, 6 and 24 hours. The food intakes at 3, 6 and 24 hours were calculated by subtracting the residual amount of the feed after 3, 6 and 24 hours from the amount of the feed that was originally given.
[In FIG. 2, * and ** tested by T-tests indicated to be lower at the levels of significance of 0.05 and 0.01 (P<0.05 and P<0.01]

male C57BL/6J mice [6] = test: Test Example 5: antifeedant activity of NMU-8 PEG conjugate in mice; settings: 10 nmol/kg intraperitoneally, mice fasted for 16 hours (FIG. 6)
Protocol: 7 weeks old male C57BL/6J mice delivered from the Japan Charles River Company were raised for 5 to 10 days after delivery under a feeding environment regulated for temperature and humidity with lighting time (25° C., 12 hours of lighted period and 12 hours of dark period, light was lit at 8:00). Four animals were placed in one cage. After handling the mice for 5 to 8 days, the animals were housed singly in each cage where a floor mesh was spread and acclimated by intraperitoneal injection using a syringe (micro injector, syringe for insulin administration, Terumo) for 3 days prior to the administration of a peptide (conjugate). The animals acclimated were fasted for 16 hours from 18:00 prior to the administration of the peptide (conjugate). However, the animals had free access to drinking water). Subsequently, a peptide dissolved in physiological saline solution (conjugate) namely 2.39 μM PEG30k (GMBS)-NMU-8 [1], 2.39 μM PEG30k (EMCS)-NMU-8 [2], 2.39 μM PEG30k (KMUS)-NMU-8 [3], 2.39 μM PEG30k (SMCC)-NMU-8 [4] were administered intraperitoneally at 10:00 on the day of administration to the mice such that the dosage of each solution (100 μl) was 10 nmol/kg. After the injection of the peptide (conjugate) solution, MF feed which had been weighed (Oriental Yeast Industry) was given freely to the mice. Further, the residual amount of the feed was measured after 3, 6 and 24 hours. The food intakes at 3, 6 and 24 hours were calculated by subtracting the residual amount of the feed after 3, 6 and 24 hours from the amount of the feed that was originally given.

male C57BL/6J mice [7] = test: Test Example 4: antifeedant activity of NMU-8 PEG conjugate in mice; settings: 100 nmol/kg intraperitoneally, mice fasted for 16 hours (FIG. 5)
Protocol: 7 weeks old male C57BL/6J mice delivered from the Japan Charles River Company were raised for 5 to 10 days after delivery under a feeding environment regulated for temperature and humidity with lighting time (25° C., 12 hours of lighted period and 12 hours of dark period, light was lit at 8:00). Four animals were placed in one cage. After handling the mice for 5 to 8 days, the animals were housed singly in each cage where a floor mesh was spread and acclimated by intraperitoneal injection for 3 days prior to the administration of a peptide (conjugate). The animals acclimated were fasted for 16 hours from 18:00 prior to the administration of the peptide (conjugate). However, the animals had free access to drinking water). Subsequently, a peptide dissolved in physiological saline solution (conjugate) was intraperitoneally injected into the mice, namely 24.2 μM PEG30k (GMBS)-NMU-8 [1], 24.2 μM PEG30k (EMCS)-NMU-8 [2], 24.2 μM PEG30k (KMUS)-NMU-8 [3], 24.2 μM PEG30k (SMCC)-NMU-8 [4] were administered intraperitoneally at 10:00 on the day of administration to the mice such that the dosage of each solution (100 μl) was 100 nmol/kg. After the injection of the peptide (conjugate) solution, MF feed which had been weighed (Oriental Yeast Industry) was given freely to the mice. Further, the residual amount of the feed was measured after 3, 6 and 24 hours. The food intakes at 3, 6 and 24 hours were calculated by subtracting the residual amount of the feed after 3, 6 and 24 hours from the amount of the feed that was originally given.

Substance	intakes of the feed at 3, 6 and 24 hours (male C57BL/6J mice [2])	intakes of the feed at 3, 6 and 24 hours (male C57BL/6J mice [3])	intakes of the feed at 3, 6 and 24 hours (male C57BL/6J mice [4])	intakes of the feed at 3, 6 and 24 hours (male C57BL/6J mice [6])	intakes of the feed at 3, 6 and 24 hours (male C57BL/6J mice [7])	further results
rat NMS: rat neuromedin S (Bachem) [Sequence No. 9] (LPRLLHTDSRMATIDFPKKDPTTSLGRPFFLFRPRN-NH2; listed as Rattus norvegicus)						intakes of the feed at 3, 6 and 24 hours (male C57BL/6J mice [1]): significantly suppressed
(PEG20k)2(AB)-NMU-8	significantly suppressed					
PEG30k(ACP)-NMU-8	significantly suppressed					
PEG30k-Cys-NMU-8 (C(PEG 30 kDa)FFLFRPRN-NH2)		significantly suppressed	significantly suppressed			
PEG30k-NMU-8		significantly suppressed	significantly suppressed			
Tyr-Lys-Val-Asn-Glu-Tyr-Gln-Gly-Pro-Val-Ala-Pro-Ser-Gly-Gly-Phe-Phe-Leu-Phe-Arg-Pro-Arg-Asn-NH2 (YKVNEYQGPVAPSGGFFLFRPRN-NH2; listed as Rattus norvegicus) [rat NMU-23]						intakes of the feed at 3 and 6 hours (male C57BL/6J mice [5]; 3 mg/kg intraperitoneally, mice fasted for 16 hours): significantly suppressed; antifeedant activity via peripheral administration (male C57BL/6J mice [5]; peripheral administration): expresses an antifeedant activity; intakes of the feed at 3, 6 and 24 hours (male C57BL/6J mice [1]): significantly suppressed
(PEG20k)2(ACP)-NMU-8	significantly suppressed					
PEG30k(SMCC)-NMU-8	significantly suppressed	significantly suppressed	significantly suppressed	significantly suppressed	significantly suppressed	
PEG30k(EMCS)-NMU-8				significantly suppressed	significantly suppressed	
PEG30k(KMUS)-NMU-8				significantly suppressed	significantly suppressed	
PEG30k(GMBS)-NMU-8				significantly suppressed	significantly suppressed	
PEG30k(Traut)-NMU-8		significantly suppressed	significantly suppressed			
PEG30k(AB)-NMU-8	significantly suppressed					
